Results: patent US7919295B2, “Polyol oxidases” (Danisco US Inc., priority 2006, dated 2011)

Tested on: Sorbitol oxidase
Assay: Substrate range study of sorbitol oxidase (relative POx activities for substrates)
Assay type: biochemical, Streptomyces sp. H-7775
[1] = substrates 50 mM in 10 mM phosphate buffer pH 7.0, relative to sorbitol

Row | Relative Activity (+, 0) [1] | Compound | Relative Activity (+, 0) (pH 7)
1 | 0 | CC(O)CO (stereo not drawn) [Propylene glycol] | –
2 | – | OCCO [Ethylene glycol] | 0
3 | ++++++ (++++++=100%) | OC[C@@H](O)[C@@H](O)[C@H](O)[C@@H](O)CO [D-Sorbitol] | –
